Patent US9895352B2, “Indolinone compounds and uses thereof” (Oncternal Therapeutics, Inc., priority 2014, dated 2018)
Where “and” joins values, the source holds several entries; their conditions need not be identical. Equal values may be shown once. Read-outs that look alike come from different tables or passages of the source. One block for each compound: values may come before it.

What was measured:
in vitro [1] = conditions: rat
MDA-MB-231 = assay: CCK-8 tetrazolium tumor cell growth inhibition, MDA-MB-231; format: cell-based; conditions: Homo sapiens; MDA-MB-231, Breast, increased ETV1
Method: (§1) A modified tetrazolium salt assay using the CCK-8 kit (Sigma-Aldrich; St Louis, Mo.) was used to measure the inhibition of human tumor cell growth. Tumor cells (5000-7500 per well) were added to 96 well plates and allowed to attach for 4-5 hours. Compounds were serially diluted and added in triplicate at a concentration of 0.02 to 5 μM. DMSO was included as a vehicle control. Cells were incubated in the presence of compound for 3 days. After incubation CCK-8 reagent was added to each well and incubated for 2-4 hours. Viable cells were quantitated spectrophotometrically at a wavelength of 450 nm. Percent viability of each sample was calculated from the A450 values as follows: % viability=(A450 nm sample/A450 nm DMSO-treated cells×100). […] IC50 activities of particular compounds were determined using SKES cells (Ewing Sarcoma cell line).

TC71 = assay: CCK-8 tetrazolium tumor cell growth inhibition, TC71; format: cell-based; conditions: Homo sapiens, TC-71; TC71, ES, EWS-FLI1 Type 1
Method: as §1

A4573 tumor cells [2] = assay: similar rat xenograft study; format: in vivo; conditions: compared to the vehicle control
[3] = rat liver microsome, no cofactor, 60 min
[4] = test system: SKES cells (Ewing Sarcoma cell line); assay: CCK-8 tetrazolium tumor cell growth inhibition, SKES; format: cell-based; conditions: Homo sapiens
Method: as §1

PANC1 = assay: CCK-8 tetrazolium tumor cell growth inhibition, PANC1; format: cell-based; conditions: Homo sapiens, PANC-1; PANC1, Pancreas, no ETS rearrangement
Method: as §1

BxPC3 = assay: CCK-8 tetrazolium tumor cell growth inhibition, BxPC3; format: cell-based; conditions: Homo sapiens, BXPC-3; BxPC3, Pancreas, increased FLI1
Method: as §1

in vitro [5] = conditions: dog
[6] = mouse liver microsome, no cofactor, 60 min
[7] = dog liver microsome, no cofactor, 60 min
LNCap = assay: CCK-8 tetrazolium tumor cell growth inhibition, LNCap; format: cell-based; conditions: Homo sapiens, Prostate, rearranged ETV1
Method: as §1

[8] = Pharmacokinetics after IV and oral administration; format: in vivo; conditions: BALB/c mice or Sprague Dawley rats; for Cmax / Tmax / bioavailability / half-life: plasma; for Tmax: read-out: Tmax
Method: (§2) Certain pharmacokinetics parameters were determined for certain compounds in vivo for intravenous and oral administration. Briefly, compounds were formulated and administered using IV bolus, continuous IV infusion or oral administration. Blood was collected at multiple time points over 24 hours and processed into plasma. Plasma was analyses for parent using LC/MS/MS. Certain parameters for certain compounds were obtained in duplicate.

A4573 tumor cells [9] = assay: A4573 xenograft study in mice; format: in vivo; conditions: A4573 tumors, relative to vehicle control
MCF7 = assay: CCK-8 tetrazolium tumor cell growth inhibition, MCF7; format: cell-based; conditions: Homo sapiens; MCF7, Breast, no ETS rearrangement
Method: as §1

[10] = human liver microsome, no cofactor, 60 min
A4573 = assay: CCK-8 tetrazolium tumor cell growth inhibition, A4573; format: cell-based; conditions: Homo sapiens; A4573, ES, EWS-FLI1 Type 3
Method: as §1

PC3 = assay: CCK-8 tetrazolium tumor cell growth inhibition, PC3; format: cell-based; conditions: Homo sapiens, PC-3; PC3, Prostate, no ETS rearrangement
Method: as §1

in vitro [11] = conditions: human liver microsomes
[12] = Half-life in dog hepatocytes; format: in vitro ADME; conditions: read-out: Half life of cmpds
Method: (§3) In another study, metabolism of compounds in hepatocytes from various species was examined. Hepatocytes were contacted with a compound, and the half-life of the compound was determined.

[13] = Half-life in mouse hepatocytes; format: in vitro ADME; conditions: read-out: Half life of cmpds
Method: as §3

in vitro [14] = conditions: mouse
[15] = Half-life in rat hepatocytes; format: in vitro ADME; conditions: read-out: Half life of cmpds
Method: as §3

[16] = Half-life in human hepatocytes; format: in vitro ADME; conditions: read-out: Half life of cmpds
Method: as §3

[17] = Pharmacokinetics, continuous infusion study in rat; format: in vivo; conditions: for Vd / clearance / half-life: plasma, iv
Method: as §2

[18] = Pharmacokinetics, continuous infusion study in dog; format: in vivo; conditions: for Vd / clearance / half-life: plasma, iv
Method: as §2

[19] = 72 h, SKES cells, 3 days with compound, CCK-8 (TABLE 3)
[20] = 20 mg/kg po, labrasol/tetraglycol 9:1
[21] = 20 mg/kg po, labrasol:tetraglycol:water 72:8:20
[22] = iv, 5 mg/kg, 5 mg/kg IV, captisol
[23] = po, 20 mg/kg, 20 mg/kg po, labrasol/tetraglycol 9:1
[24] = po, 20 mg/kg, 20 mg/kg po, labrasol:tetraglycol:water 72:8:20
[25] = iv, 10 mg/kg, 10 mg/kg IV, captisol
[26] = po, 25 mg/kg, 25 mg/kg po, labrasol:tetraglycol:water 72:8:20
[27] = po, 100 mg/kg, 100 mg/kg po, PEG-400/tween
[28] = po, 100 mg/kg, 100 mg/kg po, labrasol/tetraglycol

Structure (SMILES): COc1ccc(C(=O)CC2(O)C(=O)Nc3c(Cl)ccc(Cl)c32)cc1 (single isomer, unassigned) [Cmpd 2, 4,7-Dichloro-3-hydroxy-3-[2-(4-methoxyphenyl-2-oxoethyl)]-1,3-dihydroindol-2-one]
half-life (in vitro [1]; microsomes): 3.8 min | IC50 (MDA-MB-231): < 5 µM | IC50 (TC71): < 5 µM | tumor growth inhibition (TGI) (A4573 tumor cells [2]): 87% | Remaining (NCF = 60 min) [3]: 92.7% | IC50 [4, 19]: < 5 µM | IC50 ([4]; SKES, ES, EWS-FLI1 Type 2): < 5 µM | IC50 (PANC1): > 5 µM | IC50 (BxPC3): < 5 µM | half-life (in vitro [5]; microsomes): 30.3 min | Remaining (NCF = 60 min) [6]: 90.2% | Remaining (NCF = 60 min) [7]: 100.6% | IC50 (LNCap): < 5 µM | AUC ([8]; 5 mg/kg IV, captisol): 1991 h * (ng/mL) | % F [8, 20]: 49% | AUC [8, 20]: 3896 h * (ng/mL) and 3890 h * (ng/mL) | % F [8, 21]: 57% | AUC [8, 21]: 4574 h * (ng/mL) | Cmax [8, 22]: 9380 ng/mL | Tmax [8, 22]: 0.033 h | Cmax [8, 23]: 2240 ng/mL | bioavailability [8, 23]: 40% | half-life [8, 23]: 96 min | Tmax [8, 23]: 1 h | Cmax [8, 24]: 2840 ng/mL | bioavailability [8, 24]: 47% | half-life [8, 24]: 90 min | Tmax [8, 24]: 1 h | tumor growth inhibition (TGI) (A4573 tumor cells [9]; 200 mg/kg bid oral): did not show TGI | IC50 (MCF7): > 5 µM | Remaining (NCF = 60 min) [10]: 112.1% | IC50 (A4573): < 5 µM | IC50 (PC3): > 5 µM

half-life (in vitro [1]; liver microsomes): 1.3 min | half-life (in vitro [11]): 23 min | half-life [12]: 30.6 min | IC50 [4, 19]: < 5 µM | IC50 ([4]; SKES, ES, EWS-FLI1 Type 2): < 5 µM | half-life [13]: 60 min | half-life (in vitro [14]; liver microsomes): 9.6 min | half-life (in vitro [5]; liver microsomes): 24.1 min | half-life [15]: 18.8 min | half-life [16]: 63.6 min | AUC ([8]; 5 mg/kg IV, captisol): 3738 h * (ng/mL) | AUC [8, 20]: 7497 h * (ng/mL) | AUC [8, 21]: 11029 h * (ng/mL) | Cmax [8, 22]: 14300 ng/mL | half-life [8, 22]: 48 min | Tmax [8, 22]: 0.033 h | Cmax [8, 23]: 3220 ng/mL | bioavailability [8, 23]: 50% | half-life [8, 23]: 84 min | Tmax [8, 23]: 1 h | Cmax [8, 24]: 6420 ng/mL | bioavailability [8, 24]: 74% | half-life [8, 24]: 54 min | Tmax [8, 24]: 1 h | Remaining (NCF = 60 min) [10]: 99.4%
Structure (SMILES): O=C(CC1(O)C(=O)Nc2c(Cl)ccc(Cl)c21)c1ccc(N2CCCC2)cc1 (single isomer, unassigned) [Cmpd 18, 4,7-Dichloro-3-hydroxy-3-(2-oxo-2-(4-(pyrrolidin-1-yl)phenyl)ethyl)indolin-2-one]

Structure (SMILES): O=C(CC1(O)C(=O)Nc2c(Cl)ccc(Cl)c21)c1ccc(C2CC2)cc1 (single isomer, unassigned) [Cmpd 14, 4,7-Dichloro-3-(2-(4-cyclopropylphenyl)-2-oxoethyl)-3-hydroxyindolin-2-one]
half-life (in vitro [1]; microsomes): 2.8 min | Css(3-24 h) ([17]; 24 mg/kg/day): 344 ng/mL and 0.91 μM | MRT24-inf ([17]; 24 mg/kg/day): 1.11 h | Css(3-24 h) ([17]; 96 mg/kg/day): 1376 ng/mL and 3.7 μM | MRT24-inf ([17]; 96 mg/kg/day): 1.73 h | Vd ([17]; 24 mg/kg/day): 3.46 L/kg | clearance ([17]; 24 mg/kg/day): 48.7 mL/min/kg | half-life ([17]; 24 mg/kg/day): 49.4 min | Vd ([17]; 96 mg/kg/day): 4.23 L/kg | clearance ([17]; 96 mg/kg/day): 49.6 mL/min/kg | half-life ([17]; 96 mg/kg/day): 60 min | IC50 (MDA-MB-231): < 5 µM | IC50 (TC71): < 5 µM | half-life [12]: 20.3 min | tumor growth inhibition (TGI) (A4573 tumor cells [2]): 53% | Remaining (NCF = 60 min) [3]: 97.6% | IC50 (PANC1): > 5 µM | half-life [13]: 62.8 min | half-life (in vitro [14]; microsomes): 23.1 min | IC50 (BxPC3): < 5 µM | Remaining (NCF = 60 min) [6]: 102.0% | half-life [15]: 27.4 min | Remaining (NCF = 60 min) [7]: 97.1% | IC50 (LNCap): < 5 µM | Css(3-24 h) ([18]; 10 mg/kg/day): 210 ng/mL and 0.56 μM | MRT24-inf ([18]; 10 mg/kg/day): 2.5 h | Css(3-24 h) ([18]; 25 mg/kg/day): 466 ng/mL and 1.24 μM | MRT24-inf ([18]; 25 mg/kg/day): 2.2 h | Vd ([18]; 10 mg/kg/day): 5.64 L/kg | clearance ([18]; 10 mg/kg/day): 33.6 mL/min/kg | half-life ([18]; 10 mg/kg/day): 114 min | Vd ([18]; 25 mg/kg/day): 5.66 L/kg | clearance ([18]; 25 mg/kg/day): 37.3 mL/min/kg | half-life ([18]; 25 mg/kg/day): 102 min | half-life [16]: 75.9 min | AUC ([8]; 5 mg/kg IV, captisol): 4131 h * (ng/mL) | AUC ([8]; 10 mg/kg IV, captisol): 6059 h * (ng/mL) | AUC ([8]; 25 mg/kg po, labrasol:tetraglycol:water 72:8:20): 13152 h * (ng/mL) | AUC ([8]; 100 mg/kg po, PEG-400/tween): 92219 h * (ng/mL) | AUC ([8]; 100 mg/kg po, labrasol/tetraglycol): 146167 h * (ng/mL) | Cmax [8, 22]: 10900 ng/mL | half-life [8, 22]: 48 min | Tmax [8, 22]: 0.03 h | Cmax [8, 25]: 39800 ng/mL | half-life [8, 25]: 85.8 min | Tmax [8, 25]: 0.03 h | Cmax [8, 26]: 2770 ng/mL | bioavailability [8, 26]: 64% | half-life [8, 26]: 186 min | Tmax [8, 26]: 1 h | Cmax [8, 27]: 26000 ng/mL | bioavailability [8, 27]: 100% | half-life [8, 27]: 230 min | Tmax [8, 27]: 0 h | Cmax [8, 28]: 33000 ng/mL | bioavailability [8, 28]: 100% | half-life [8, 28]: 463 min | Tmax [8, 28]: 2 h | tumor growth inhibition (TGI) (A4573 tumor cells [9]; 100 mg/kg bid oral): 57% | IC50 (MCF7): > 5 µM | Remaining (NCF = 60 min) [10]: 104.5% | IC50 (A4573): < 5 µM | IC50 (PC3): > 5 µM
